Tested on: 997537-175-T-J1-PDC complex spheroid viability
Experiment: Anticancer human tumor 997537-175-T-J1-PDC patient-derived colon adenocarcinoma cell line growth inhibition [GQUAD]
Conditions: for IC50: curve of first compound; for viability, T/C: stronger effect = lower value; active = viability on the fitted dose curve at most 10% of control; inactive = the rest
Procedure, shortened: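 Viability of tumor cells grown as complex spheroids with endothelial and stromal cells, exposed to drug combinations. Top concentration at or near clinical Cmax (else 10 microM), diluted in half-log increments.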

[1] = second compound 0.0316 µM, first compound 0.0316 µM
[2] = second compound 0.0316 µM, first compound 0.1 µM
[3] = second compound 0.0316 µM, first compound 0.316 µM
[4] = second compound 0.0316 µM, first compound 1 µM
[5] = second compound 0.0316 µM, first compound 3.16 µM
[6] = second compound 0.0316 µM, first compound 10 µM
[7] = second compound 0.1 µM, first compound 0.0316 µM
[8] = second compound 0.1 µM, first compound 0.1 µM
[9] = second compound 0.1 µM, first compound 0.316 µM
[10] = second compound 0.1 µM, first compound 1 µM
[11] = second compound 0.1 µM, first compound 3.16 µM
[12] = second compound 0.1 µM, first compound 10 µM
[13] = second compound 0.316 µM, first compound 0.0316 µM
[14] = second compound 0.316 µM, first compound 0.1 µM
[15] = second compound 0.316 µM, first compound 0.316 µM
[16] = second compound 0.316 µM, first compound 1 µM
[17] = second compound 0.316 µM, first compound 3.16 µM
[18] = second compound 0.316 µM, first compound 10 µM
[19] = second compound 1 µM, first compound 0.0316 µM
[20] = second compound 1 µM, first compound 0.1 µM
[21] = second compound 1 µM, first compound 0.316 µM
[22] = second compound 1 µM, first compound 1 µM
[23] = second compound 1 µM, first compound 3.16 µM
[24] = second compound 1 µM, first compound 10 µM
[25] = second compound 3.16 µM, first compound 0.0316 µM
[26] = second compound 3.16 µM, first compound 0.1 µM
[27] = second compound 3.16 µM, first compound 0.316 µM
[28] = second compound 3.16 µM, first compound 1 µM
[29] = second compound 3.16 µM, first compound 3.16 µM
[30] = second compound 3.16 µM, first compound 10 µM
[31] = second compound 10 µM, first compound 0.0316 µM
[32] = second compound 10 µM, first compound 0.1 µM
[33] = second compound 10 µM, first compound 0.316 µM
[34] = second compound 10 µM, first compound 1 µM
[35] = second compound 10 µM, first compound 3.16 µM
[36] = second compound 10 µM, first compound 10 µM
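Also: spheroids exposed to the agents for 7 days.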
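For viability, T/C in this document: 100% = DMSO vehicle control viability.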

C#Cc1c(F)ccc2cc(O)cc(-c3ncc4c(N5CC6CCC(C5)N6)nc(OCC56CCCN5CC(F)C6)nc4c3F)c12 (stereo not given) + Cc1[nH]c2ccc(F)cc2c1-c1nc2c3cccnc3c3ncccc3c2[nH]1
460 nM: IC50 (second compound 10 µM)
inactive: viability, T/C [1] 87.5% | viability, T/C [2] 90.5% | viability, T/C [3] 97% | viability, T/C [4] 71.1% | viability, T/C [5] 29.3% | viability, T/C [6] 35.4% | viability, T/C [7] 98.8% | viability, T/C [8] 103% | viability, T/C [9] 99.6% | viability, T/C [10] 74.2% | viability, T/C [11] 30.9% | viability, T/C [12] 26.6% | viability, T/C [13] 91.6% | viability, T/C [14] 87.7% | viability, T/C [15] 85.4% | viability, T/C [16] 63.3% | viability, T/C [17] 35.4% | viability, T/C [18] 41% | viability, T/C [19] 95.9% | viability, T/C [20] 88.3% | viability, T/C [21] 79.6% | viability, T/C [22] 56.9% | viability, T/C [23] 29.5% | viability, T/C [24] 38.2% | viability, T/C [25] 89.4% | viability, T/C [26] 73.7% | viability, T/C [27] 62% | viability, T/C [28] 41% | viability, T/C [29] 21.5% | viability, T/C [30] 15.2% | viability, T/C [31] 70.7% | viability, T/C [32] 74.1% | viability, T/C [33] 60.6% | viability, T/C [34] 26.9% | viability, T/C [35] 10.2% | viability, T/C [36] 11.8%
1840 nM: IC50 (second compound 0.316 µM)
1900 nM: IC50 (second compound 0.1 µM)
1870 nM: IC50 (second compound 0.0316 µM)
1290 nM: IC50 (second compound 1 µM)
563 nM: IC50 (second compound 3.16 µM)

C=CCn1c(=O)c2cnc(Nc3ccc(N4CCN(C)CC4)cc3)nc2n1-c1cccc(C(C)(C)O)n1 + Cc1[nH]c2ccc(F)cc2c1-c1nc2c3cccnc3c3ncccc3c2[nH]1
inactive: viability, T/C [1] 102% | viability, T/C [2] 68.9% | viability, T/C [3] 82.3% | viability, T/C [4] 83.6% | viability, T/C [5] 90.9% | viability, T/C [6] 30% | viability, T/C [7] 105% | viability, T/C [8] 97.1% | viability, T/C [9] 89.8% | viability, T/C [10] 89.2% | viability, T/C [11] 93.6% | viability, T/C [12] 22.2% | viability, T/C [13] 86.8% | viability, T/C [14] 98.8% | viability, T/C [15] 79.3% | viability, T/C [16] 86.4% | viability, T/C [17] 84.4% | viability, T/C [18] 25% | viability, T/C [19] 86.6% | viability, T/C [20] 102% | viability, T/C [21] 86.4% | viability, T/C [22] 78.3% | viability, T/C [23] 71.2% | viability, T/C [24] 30.1% | viability, T/C [25] 92% | viability, T/C [26] 87.3% | viability, T/C [27] 72.4% | viability, T/C [28] 56.5% | viability, T/C [29] 55% | viability, T/C [30] 6.52% | viability, T/C [31] 91.9% | viability, T/C [32] 65.1% | viability, T/C [33] 74.9% | viability, T/C [34] 66.5% | viability, T/C [35] 42.1% | viability, T/C [36] 11.5%
2240 nM: IC50 (second compound 3.16 µM)
5500 nM: IC50 (second compound 1 µM)
6380 nM: IC50 (second compound 0.1 µM)
2090 nM: IC50 (second compound 10 µM)
6160 nM: IC50 (second compound 0.316 µM)
6610 nM: IC50 (second compound 0.0316 µM)

CC(=O)O[C@H]1C(=O)[C@@]2(C)[C@H]([C@H](OC(=O)c3ccccc3)[C@]3(O)C[C@H](OC(=O)[C@H](O)[C@@H](NC(=O)c4ccccc4)c4ccccc4)C(C)=C1C3(C)C)[C@]1(OC(C)=O)CO[C@@H]1C[C@@H]2O + Cc1[nH]c2ccc(F)cc2c1-c1nc2c3cccnc3c3ncccc3c2[nH]1
2800 nM: IC50 (second compound 0.0316 µM)
4510 nM: IC50 (second compound 0.316 µM)
active: viability, T/C [6] 0.33% | viability, T/C [12] 0.32% | viability, T/C [18] 0.3% | viability, T/C [24] 0.2% | viability, T/C [30] 0.38% | viability, T/C [36] 0.47%
inactive: viability, T/C [1] 97.5% | viability, T/C [2] 93.3% | viability, T/C [3] 80.5% | viability, T/C [4] 92.1% | viability, T/C [5] 45.2% | viability, T/C [7] 102% | viability, T/C [8] 106% | viability, T/C [9] 86.6% | viability, T/C [10] 90.9% | viability, T/C [11] 65.6% | viability, T/C [13] 113% | viability, T/C [14] 91% | viability, T/C [15] 85.7% | viability, T/C [16] 87.7% | viability, T/C [17] 75.5% | viability, T/C [19] 94.1% | viability, T/C [20] 93.3% | viability, T/C [21] 96.2% | viability, T/C [22] 89.8% | viability, T/C [23] 56.8% | viability, T/C [25] 83.7% | viability, T/C [26] 93.3% | viability, T/C [27] 96.7% | viability, T/C [28] 84.8% | viability, T/C [29] 33.4% | viability, T/C [31] 78.5% | viability, T/C [32] 90.1% | viability, T/C [33] 77.2% | viability, T/C [34] 78% | viability, T/C [35] 30.7%
2190 nM: IC50 (second compound 3.16 µM)
4120 nM: IC50 (second compound 0.1 µM)
3630 nM: IC50 (second compound 1 µM)
1970 nM: IC50 (second compound 10 µM)

CC(C)(O)C1CCC(Nc2ccc3ncc(-c4cccc(C(F)(F)F)c4)n3n2)CC1 (stereo not given) + Cc1[nH]c2ccc(F)cc2c1-c1nc2c3cccnc3c3ncccc3c2[nH]1
> 10000 nM: IC50 (second compound 0.0316 µM) | IC50 (second compound 0.1 µM) | IC50 (second compound 0.316 µM) | IC50 (second compound 1 µM) | IC50 (second compound 3.16 µM) | IC50 (second compound 10 µM)
inactive: viability, T/C [1] 114% | viability, T/C [2] 107% | viability, T/C [3] 103% | viability, T/C [4] 108% | viability, T/C [5] 107% | viability, T/C [6] 114% | viability, T/C [7] 120% | viability, T/C [8] 103% | viability, T/C [9] 97.5% | viability, T/C [10] 103% | viability, T/C [11] 99.3% | viability, T/C [12] 105% | viability, T/C [13] 101% | viability, T/C [14] 105% | viability, T/C [15] 108% | viability, T/C [16] 101% | viability, T/C [17] 104% | viability, T/C [18] 99.4% | viability, T/C [19] 115% | viability, T/C [20] 99% | viability, T/C [21] 101% | viability, T/C [22] 101% | viability, T/C [23] 97.7% | viability, T/C [24] 90.5% | viability, T/C [25] 94.9% | viability, T/C [26] 97.2% | viability, T/C [27] 93.5% | viability, T/C [28] 90.7% | viability, T/C [29] 104% | viability, T/C [30] 96.9% | viability, T/C [31] 98.1% | viability, T/C [32] 80.3% | viability, T/C [33] 88.9% | viability, T/C [34] 97.4% | viability, T/C [35] 78.3% | viability, T/C [36] 79.6%

CCCS(=O)(=O)Nc1ccc(F)c(C(=O)c2c[nH]c3ncc(-c4ccc(Cl)cc4)cc23)c1F + Cc1[nH]c2ccc(F)cc2c1-c1nc2c3cccnc3c3ncccc3c2[nH]1
1470 nM: IC50 (second compound 10 µM)
inactive: viability, T/C [1] 88.8% | viability, T/C [2] 107% | viability, T/C [3] 97.9% | viability, T/C [4] 70.1% | viability, T/C [5] 71.5% | viability, T/C [6] 34.4% | viability, T/C [7] 101% | viability, T/C [8] 105% | viability, T/C [9] 90% | viability, T/C [10] 94.1% | viability, T/C [11] 71.6% | viability, T/C [12] 27.5% | viability, T/C [13] 102% | viability, T/C [14] 101% | viability, T/C [15] 97.1% | viability, T/C [16] 69.2% | viability, T/C [17] 83.5% | viability, T/C [18] 41.8% | viability, T/C [19] 98.2% | viability, T/C [20] 97.4% | viability, T/C [21] 101% | viability, T/C [22] 73.4% | viability, T/C [23] 33.1% | viability, T/C [24] 30.7% | viability, T/C [25] 86% | viability, T/C [26] 81% | viability, T/C [27] 88% | viability, T/C [28] 72.8% | viability, T/C [29] 35.4% | viability, T/C [30] 16.5% | viability, T/C [31] 72.4% | viability, T/C [32] 82.5% | viability, T/C [33] 71.8% | viability, T/C [34] 63.3% | viability, T/C [35] 17.7% | viability, T/C [36] 28.9%
8050 nM: IC50 (second compound 0.316 µM)
2030 nM: IC50 (second compound 3.16 µM)
1920 nM: IC50 (second compound 1 µM)
5740 nM: IC50 (second compound 0.0316 µM)
5600 nM: IC50 (second compound 0.1 µM)

— PubChem BioAssay AID2060487 (Molecular Pharmacology Branch, DTP, NCI, 2025)
